Like-named read-outs stand apart in the source and are kept apart here.
Tests used:
[1] = system: T1, Ae. aegypti larval ACE (soluble peptidyl dipeptidase activity); assay: fluorogenic peptidase assay, larval high-speed supernatant; format: biochemical; conditions: substrate Abz-Phe-Arg-Lys(Dnp)-Pro-OH about 25 uM, pH 7.5, 50 mM NaCl, 10 uM ZnCl2, 20 C, 10 min pre-incubation, read-out: Aedes aegypti / IC50
T1 construct: native; 55,000 g supernatant of whole 3rd instar larval homogenate, not purified; gene(s) not identified for this species
Text: fluorogenic peptidase assay, larval high-speed supernatant on Ae. aegypti larval ACE (soluble peptidyl dipeptidase activity)

[2] = system: T2, An. gambiae larval ACE (soluble peptidyl dipeptidase activity; one or both of AnoACE2 and AnoACE3); assay: as above; format: biochemical; conditions: substrate Abz-Phe-Arg-Lys(Dnp)-Pro-OH about 25 uM, pH 7.5, 50 mM NaCl, 10 uM ZnCl2, 20 C, 10 min pre-incubation, read-out: Anopheles gambiae / IC50
T2 construct: native; 55,000 g supernatant of whole 3rd instar larval homogenate, not purified; AnoACE2 and/or AnoACE3 inferred by the authors from soluble activity and larval expression
Text: fluorogenic peptidase assay, larval high-speed supernatant on An. gambiae larval ACE (soluble peptidyl dipeptidase activity; one or both of AnoACE2 and AnoACE3)

Row | Compound | IC50 [1] | IC50 [2] | IC50 ([1]; pro-drug ester of fosinoprilat) | IC50 ([2]; pro-drug ester of fosinoprilat)
1 | C[C@H](CS)C(=O)N1CCC[C@H]1C(=O)O [captopril] | 2.47 nM | 16.7 nM | – | –
2 | CCC(=O)O[C@@H](O[P@](=O)(CCCCc1ccccc1)CC(=O)N1C[C@H](C2CCCCC2)C[C@H]1C(=O)O)C(C)C [fosinopril] | – | – | 373 nM | 326 nM
3 | O=C(O)[C@@H]1C[C@@H](C2CCCCC2)CN1C(=O)CP(=O)(O)CCCCc1ccccc1 [fosinoprilat] | 6.61 nM | 35.2 nM | – | –
